Key:
[1] = molecular target: T1, Thromboxane A2 receptor (Homo sapiens) (UniProt P21731); assay: Thromboxane A2 receptor binding affinity was evaluated, which is expressed as competition factor (CF = (IC50-test) / (IC50-standard)
T1 sequence (whole entry): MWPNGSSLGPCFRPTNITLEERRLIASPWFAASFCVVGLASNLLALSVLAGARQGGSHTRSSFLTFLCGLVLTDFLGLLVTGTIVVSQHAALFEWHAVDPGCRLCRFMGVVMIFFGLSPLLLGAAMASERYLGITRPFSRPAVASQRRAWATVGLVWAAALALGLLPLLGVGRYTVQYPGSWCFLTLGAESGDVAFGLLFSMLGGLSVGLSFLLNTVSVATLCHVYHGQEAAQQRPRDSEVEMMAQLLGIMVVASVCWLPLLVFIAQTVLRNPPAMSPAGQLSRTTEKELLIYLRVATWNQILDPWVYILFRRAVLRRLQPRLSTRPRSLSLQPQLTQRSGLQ

[2] = species: Homo sapiens; assay: Compound was evaluated for the inhibition of platelet aggregation, assessed turbidimetrically in citreated human platelet rich plasma (PRP); NE means not effective; type: functional, organism-based
[3] = molecular target: T1, Thromboxane A2 receptor (Homo sapiens); assay: Thromboxane A2 receptor binding affinity was evaluated as competition factor (CF = (IC50-test) / (IC50-standard)
[4] = molecular target: T1, Thromboxane A2 receptor (Homo sapiens); assay: Thromboxane A2 receptor binding affinity was evaluated, which is expressed as competition factor (CF = (IC50-test) / (IC50-standard); not parallel

| SMILES | CF [1] | further results |
| --- | --- | --- |
| O=C(O)CC/C=C/C[C@H]1[C@H](F)CC[C@@H]1NS(=O)(=O)c1ccc(F)cc1F | 6.6 | – |
| O=C(O)CCCCC[C@@H]1[C@@H](CNS(=O)(=O)c2ccc(F)cc2)CC[C@H]1F | 380 | – |
| Cc1ccc(S(=O)(=O)NC[C@H]2CC[C@@H](F)[C@@H]2C/C=C\CCC(=O)O)cc1 | 154 | – |
| O=C(O)CCC/C=C\C[C@H]1[C@H](F)CC[C@@H]1NS(=O)(=O)c1ccc2ccccc2c1 | 0.3 | – |
| O=C(O)CCC/C=C\C[C@@H]1[C@@H](CNS(=O)(=O)c2ccc(F)cc2)CC[C@H]1F | 50 | – |
| O=C(O)COCCCCC1=CCC[C@@H]1NS(=O)(=O)c1ccc(Cl)cc1 | 2.6 | IC50 [2]: Not Active |
| O=C(O)CC/C=C\C[C@H]1[C@H](F)CC[C@@H]1NS(=O)(=O)c1ccc(Cl)c(Cl)c1 | – | CF [3]: 1.4 |
| O=C(O)COCCCCC1=CCC[C@@H]1NS(=O)(=O)c1ccccc1[N+](=O)[O-] | 130 | – |
| O=C(O)CC/C=C\C[C@@H]1[C@@H](CNS(=O)(=O)c2ccc(F)cc2)CC[C@H]1F | – | CF [4]: 11 |
| O=C(O)CCC/C=C\C[C@H]1[C@H](F)CC[C@@H]1NS(=O)(=O)c1cccc2cccnc12 | 340 | – |
| O=C(O)COCCCC[C@H]1[C@H](F)CC[C@@H]1NS(=O)(=O)c1ccc(F)cc1 | – | CF [4]: 2.7 |
| O=C(O)CCCCCC[C@@H]1[C@@H](CNS(=O)(=O)c2ccc(F)cc2)CC[C@H]1F | 260 | – |
| O=C(O)COCCCC[C@H]1[C@H](F)CC[C@@H]1NS(=O)(=O)c1ccc(F)cc1F | 30 | – |
| O=C(O)CCC/C=C\C[C@H]1[C@H](F)CC[C@@H]1NS(=O)(=O)c1ccccc1 | 4 | – |
| O=C(O)CC/C=C\C[C@H]1[C@H](F)CC[C@@H]1NS(=O)(=O)c1ccccc1[N+](=O)[O-] | 370 | – |
| O=C(O)CCCC=CC[C@H]1[C@H](F)CC[C@@H]1NS(=O)(=O)c1ccc(F)cc1 | 1.5 | – |
| O=C(O)COCCCCC1=CCC[C@@H]1NS(=O)(=O)c1ccc(F)cc1F | 22 | – |
| Cc1ccc(S(=O)(=O)N[C@H]2CC[C@@H](F)[C@@H]2CCCCOCC(=O)O)cc1 | – | CF [4]: 3.5 |
| Cc1ccc(S(=O)(=O)NC[C@H]2CC[C@H](F)[C@@H]2C/C=C\CCC(=O)O)cc1 | – | CF [4]: 6; IC50 [2]: Not Active |
| O=C(O)COCCCC[C@@H]1[C@@H](CNS(=O)(=O)c2ccc(F)cc2)CC[C@H]1F | – | CF [4]: 6.7 |
| O=C(O)COCCCCC1=CCC[C@@H]1CNS(=O)(=O)c1ccc(F)cc1 | – | CF [4]: 0.5 |
| O=C(O)COCCCC[C@H]1[C@H](F)CC[C@@H]1NS(=O)(=O)c1ccccc1[N+](=O)[O-] | 330 | – |

| SMILES | CF [1] | further results |
| --- | --- | --- |
| O=C(O)CC/C=C\C[C@@H]1[C@@H](CNS(=O)(=O)c2ccc(F)cc2)CC[C@H]1F (stereo in doubt; form 1) | 300 | – |
| O=C(O)CCC/C=C\C[C@H]1[C@H](F)CC[C@@H]1NS(=O)(=O)c1ccc(Cl)cc1 | 0.3 | – |
| O=C(O)COCCCC[C@H]1[C@H](F)CC[C@@H]1NS(=O)(=O)c1ccc(Cl)c(Cl)c1 | 2.3 | IC50 [2]: Not Active |
| O=C(O)COCCCCC1=CCC[C@@H]1NS(=O)(=O)c1ccc(F)cc1 | 13 | – |
| O=C(O)CC/C=C\C[C@@H]1[C@@H](CNS(=O)(=O)c2ccc(Cl)cc2)CC[C@H]1F | 40 | – |
| O=C(O)COCCCCC1=CCC[C@@H]1NS(=O)(=O)c1ccc(Cl)c(Cl)c1 | 7.6 | – |
| O=C(O)COCCCCC1=CCC[C@@H]1NS(=O)(=O)c1ccccc1 | 26 | – |
| O=C(O)CC/C=C\C[C@@H]1[C@@H](CNS(=O)(=O)c2ccc(F)cc2)CC[C@@H]1F | 11 | – |
| O=C(O)CC/C=C\C[C@H]1[C@H](F)CC[C@@H]1NS(=O)(=O)c1ccccc1 | 10 | – |
| O=C(O)COCCCC[C@H]1[C@H](F)CC[C@@H]1NS(=O)(=O)c1ccc(Cl)cc1 | 0.8 | IC50 [2]: Not Active |
| O=C(O)CCCCCCC1=CCC[C@@H]1NS(=O)(=O)c1ccc(F)cc1 | 2.7 | – |
| O=C(O)CC/C=C\C[C@H]1[C@H](F)CC[C@@H]1NS(=O)(=O)c1ccc(Cl)cc1 | 1.3 | – |
| O=C(O)CCC/C=C\C[C@H]1[C@H](F)CC[C@@H]1NS(=O)(=O)c1ccc(F)cc1 | 1.5 | – |
| O=C(O)CCCCCC[C@H]1[C@H](F)CC[C@@H]1NS(=O)(=O)c1ccc(F)cc1 | 7.5 | – |
| O=C(O)CC/C=C\C[C@H]1[C@H](F)CC[C@@H]1NS(=O)(=O)c1ccc(F)cc1 | 4.3 | – |
| O=C(O)CCC/C=C\C[C@H]1[C@H](F)CC[C@@H]1NS(=O)(=O)c1ccccc1[N+](=O)[O-] | 10 | – |
| O=C(O)CC/C=C\C[C@@H]1[C@@H](CNS(=O)(=O)c2ccc(Cl)cc2)CC[C@@H]1F | – | CF [4]: 1.8; IC50 [2]: Not Active |
| O=C(O)COCCCC[C@H]1[C@H](F)CC[C@@H]1NS(=O)(=O)c1ccccc1 | – | CF [4]: 9.1 |
| O=C(O)CC/C=C\C[C@@H]1[C@@H](CNS(=O)(=O)c2ccc(F)cc2)CC[C@H]1F (stereo in doubt; form 2) | 300 | – |
| O=C(O)CCC/C=C\C[C@H]1[C@H](F)CC[C@@H]1NS(=O)(=O)c1ccc(F)cc1F | 1.1 | – |
| O=C(O)CCC/C=C\C[C@H]1[C@H](F)CC[C@@H]1NS(=O)(=O)c1ccc(Cl)c(Cl)c1 | 0.5 | – |

Now from value to molecule, other results behind:

| CF [1] | SMILES | further results |
| --- | --- | --- |
| 11 | Cc1ccc(S(=O)(=O)N[C@H]2CCC=C2CCCCOCC(=O)O)cc1 | – |
| 1.5 | Cc1ccc(S(=O)(=O)N[C@H]2CCC=C2C/C=C\CCCC(=O)O)cc1 | – |
| 3.5 | O=C(O)CCC/C=C\CC1=CCC[C@@H]1NS(=O)(=O)c1ccccc1 | – |
| 5.5 | O=C(O)CC/C=C\CC1=CCC[C@@H]1NS(=O)(=O)c1ccc(F)cc1 | – |
| 14 | O=C(O)CC/C=C\CC1=CCC[C@@H]1NS(=O)(=O)c1ccc(F)cc1F | – |
| 6.6 | O=C(O)CCC/C=C\CC1=CCC[C@@H]1NS(=O)(=O)c1ccccc1[N+](=O)[O-] | – |
| 12 | O=C(O)CC/C=C\CC1=CCC[C@@H]1NS(=O)(=O)c1ccccc1 | – |
| 13 | O=C(O)CC/C=C\CC1=CCC[C@@H]1NS(=O)(=O)c1ccc(Cl)c(Cl)c1 | – |
| 1.1 | O=C(O)CCC/C=C\CC1=CCC[C@@H]1NS(=O)(=O)c1ccc(Cl)c(Cl)c1 | IC50 [2]: Not Active |
| 1.5 | O=C(O)CCC/C=C\CC1=CCC[C@@H]1NS(=O)(=O)c1ccc(F)cc1 (stereo in doubt; 3d) | – |
| 1.5 | O=C(O)CCC/C=C\CC1=CCC[C@@H]1NS(=O)(=O)c1ccc(F)cc1 (stereo in doubt) | – |
| 1.5 | Cc1ccc(S(=O)(=O)N[C@H]2CC[C@@H](F)[C@@H]2C/C=C\CCCC(=O)O)cc1 | – |
| 21 | O=C(O)CC/C=C\CC1=CCC[C@@H]1CNS(=O)(=O)c1ccc(F)cc1 | – |
| 17 | O=C(O)CCC/C=C\CC1=CCC[C@@H]1CNS(=O)(=O)c1ccc(F)cc1 | – |
| 0.3 | O=C(O)CCC/C=C\CC1=CCC[C@@H]1NS(=O)(=O)c1ccc2ccccc2c1 | – |
| 560 | O=C(O)CCCC=CCC1=CCC[C@@H]1NS(=O)(=O)c1cccc2cccnc12 | – |
| 40 | O=C(O)CC/C=C\CC1=CCC[C@@H]1NS(=O)(=O)c1ccccc1[N+](=O)[O-] | – |
| 0.3 | O=C(O)CCC/C=C\CC1=CCC[C@@H]1NS(=O)(=O)c1ccc(Cl)cc1 | IC50 [2]: Not Active |
| 7.4 | Cc1ccc(S(=O)(=O)N[C@H]2CCC=C2C/C=C\CCC(=O)O)cc1 | – |
| 5.1 | Cc1ccc(S(=O)(=O)N[C@H]2CC[C@@H](F)[C@@H]2C/C=C\CCC(=O)O)cc1 | – |
| 1.5 | O=C(O)CCC/C=C\CC1=CCC[C@@H]1NS(=O)(=O)c1ccc(F)cc1F | IC50 [2]: Not Active |
| 2.8 | O=C(O)CC/C=C\CC1=CCC[C@@H]1NS(=O)(=O)c1ccc(Cl)cc1 | – |

Source: ChEMBL document CHEMBL1128161, “Novel prostanoid thromboxane A2 antagonists” (Bioorg Med Chem Lett, 1995)
